In one experiment the test system is J774 murine macrophages. Nature of the experiment: Toxicity to J774 macrophages (three-day CellTiter assay). The class given is cell-based. To be noted: read-out: IC50, J774 macrophages. The method, then: The toxicity of compounds to J774 murine macrophages and PC3 […] cells was measured in a three-day assay using the CellTiter reagent. […] Macrophages were allowed to adhere for 24 hours, then the medium was removed and replaced with serial dilutions of the test compounds in the DMEM medium mentioned above without phenol red. After 72 hr incubation with the test compounds at 37° C. in a humidified 5% CO2 incubator, cell viability was determined using the CellTiter reagent by adding 20 μL of assay solution to each well. After a 6-7 h incubation at 37° C. to allow for color development, the absorbance of each well at 490 nm was measured in a SpectraMax Pro microplate reader (Molecular Devices). The toxicity of compounds to PC3 cells was assessed in the same manner as for the macrophages, except that the medium used was RPMI 1640 supplemented with 10% heat inactivated fetal calf serum, 2.0 mM L-glutamine, 50 units/mL penicillin, and 50 ∝g/mL streptomycin. IC50 values for the J774 and PC3 assays were determined with the software program SoftMax Pro as described earlier.

The test system of experiment [1] is L. donovani axenic amastigotes. Description: Growth inhibition of L. donovani axenic amastigotes (three-day tetrazolium dye assay). It is filed as cell-based, Leishmania donovani. As for the experimental part: (§1) 2000, 110, 223-236, incorporated herein by reference.^14
(§2) Determination of the drug susceptibility of parasites and mammalian cells. The susceptibility of Leishmania donovani amastigote-like parasites (WHO designation: MHOM/SD/62/1S-CL2D) to growth inhibition by compounds of interest was measured in a three-day assay using the tetrazolium dye-based CellTiter reagent (Promega) (Werbovetz, K., Brendle, J., and Sackett, D. (1999) Mol. Biochem. Parasitol. 98, 53-65., and Havens, C., Bryant, N., Asher, L., Lamoreaux, L., Perfetto, S., Brendle, J., and Werbovetz, K. (2000) Mol. Biochem. Parasitol. 110, 223-236). The amastigote medium used in this assay is based on the medium mentioned by Joshi et al. (Joshi, M., Dwyer, D. M., and Nakhasi, H. L. (1993) Mol. Biochem. Parasitol. 58, 345-354). Prior to addition of fetal bovine serum to a final concentration of 20%, this amastigote medium contains 15 mM KCl, 115 mM KH2PO4, 10 mM K2HPO4, 0.5 mM MgSO4, 24 mM NaHCO3, a 1-concentration of RPMI-1640 vitamins and amino acids, 2.0 mM L-glutamine, 22 mM D-glucose, 100 units/mL penicillin, 100 ∝g/ml streptomycin, 0.1 mM adenosine, 1 ∝g/mL folate, and 25 mM MES (pH 5.5). Compounds were tested for their activity against bloodstream-form Trypanosoma brucei brucei (MITat 1.2, variant 221) axenically-cultured in HMI-9 medium , H., and Hirumi, K. (1989) J. Parasitol. 75, 985-989.) following the procedure of Ellis et al. (Ellis, J., Fish, W., Sileghem, M., and McOdimba, F. (1993) Vet. Parasitol. 50, 143-149.) with some modifications. Briefly, 100 μL of late log phase parasites were incubated in 96-well plates (Costar) at an initial concentration of 10^5 cells/ml with or without test compounds at 37° C. in a humidified 5% CO2 atmosphere for 72 hours. Twenty-five μL of a 5 mg/mL solution of MTT (prepared in phosphate buffered saline and filter sterilized) was then added to each well and plates were re-incubated at 37° C. as before for 2 h. One hundred ∝L of 20% SDS lysis buffer (prepared in 50% aqueous DMF) was added to each well and plates were incubated as before for an additional 3-4 h. Optical densities were then measured at 570 nm using SpectraMax Plus microplate reader. […] Assessment of the in vitro sensitivity of T. b. brucei Lab 110 EATRO and P. falciparum strains to compounds was performed by methods described in Donkor et al. (Donkor, I., Assefa, H., Rattendi, D., Lane, S., Vargas, M., Goldberg, B., and Bacchi, C. (2001) Eur. J. Med. Chem. 36, 531-538.) and Guan et al. (Guan, J., Kyle, D., Gerena, L., Zhang, Q., Milhous, W., and Lin, A. (2002) J. Med. Chem. 45, 2741-2748).

In experiment [2] the test system is Trypanosoma brucei brucei (MITat 1.2, variant 221). Description: microbe, parasite or virus in culture. The following applies: read-out: IC50, T. b. brucei variant 221. The class given is cell-based. As for the experimental part: as §2
A further experiment relates to leishmanial tubulin. It is filed as biochemical. The following applies: mean ± SD of at least one duplicate measurement, SD of controls 27.6%. The method, then: as §1
Briefly, the tubulin assembly assays are performed as follows. […] The change in turbidity was measured at 351 nm using the SpectraMax Plus microplate reader immediately after GTP addition at 30° C. (for leishmanial tubulin) or 37° C. (for brain tubulin).

Experiment [3] deals with L. donovani promastigotes. Description: Growth inhibition of L. donovani promastigotes. The class given is cell-based, Leishmania donovani. The following applies: mean ± standard deviation of at least two independent measurements, read-out: IC50 vs. L. donovani promastigotes.
[4] abbreviates: unit inferred, three-day tetrazolium dye assay, read-out: IC50, L. donovani axenic amastigotes.
[5] abbreviates: Trypanosoma brucei, unit inferred.

Broadly, the IC50 is the concentration needed to halve the response being measured.

Read-outs that look alike come from different tables or passages of the source.

For `CCCN(CCC)c1c([N+](=O)[O-])cc(S(=O)(=O)Nc2ccc(OC)cc2)cc1[N+](=O)[O-]` [Compound 39, N1-(4-Methoxy)phenyl-3,5-dinitro-N4,N4-di-n-Propylsulfonilamide], the values for the IC50 (with J774 murine macrophages (unit inferred); in experiment [1] (setting [4]); in experiment [2] (unit inferred)) were 15.2 ± 6.7 µM, 31.9 ± 14.6 µM and 20.5 µM, respectively.

On to `CCCN(CCC)c1c([N+](=O)[O-])cc(S(=O)(=O)Nc2ccccn2)cc1[N+](=O)[O-]` [Compound 46, N1-(2-Pyridinyl)-3,5-dinitro-N4,N4-di-n-propylsulfonilamide], for which the IC50 in the experiment on J774 murine macrophages (unit inferred) is 44.9 ± 16.3 µM; in experiment [1] (setting [4]), 59.7 ± 6.2 µM; in experiment [2] (unit inferred), 10.9 µM.

With `CCCCN(CCCC)c1c([N+](=O)[O-])cc(S(=O)(=O)Nc2ccccc2)cc1[N+](=O)[O-]` [Compound 32, N1-Phenyl-3,5-dinitro-N4,N4-di-n-butylsulfonilamide], the IC50 came to 11.9 ± 0.5 µM in the experiment with J774 murine macrophages (unit inferred), 2.57 ± 0.25 µM in experiment [1] (setting [4]) and 0.1 µM in experiment [2] (unit inferred).

Regarding `Cc1ccc(C(=O)Nc2ccc(S(=O)(=O)O)c3cc(S(=O)(=O)O)cc(S(=O)(=O)O)c23)cc1NC(=O)c1cccc(NC(=O)Nc2cccc(C(=O)Nc3cc(C(=O)Nc4ccc(S(=O)(=O)O)c5cc(S(=O)(=O)O)cc(S(=O)(=O)O)c45)ccc3C)c2)c1` [Suramin, reference compound], in experiment [2] (setting [5]), the IC50 is 0.233 ± 0.05 µM.

As to `CCCNc1c([N+](=O)[O-])cc(S(N)(=O)=O)cc1[N+](=O)[O-]` [Compound 13], in the experiment with leishmanial tubulin, the “% Inhibition of Leishmanial Tubulin Assembly at 20 μM Compound” value (“% Inhibition” for short) came out at 43 ± 19%. Besides, in experiment [3], the IC50 was determined as 67 ± 18.4 µM.

Regarding `CCCN(CCC)c1c([N+](=O)[O-])cc(C(N)=NO)cc1[N+](=O)[O-]` [Compound 29], the “% Inhibition” value in the experiment on leishmanial tubulin is given as 35 ± 7%. The IC50 in experiment [3] was over 100 µM.

`CCCN(CCC)c1c([N+](=O)[O-])cc(S(=O)(=O)Nc2ccc(C)cc2)cc1[N+](=O)[O-]` [Compound 40, N1-(4Methyl)phenyl-3,5-dinitro-N4,N4-di-n-propylsulfonilamide]: the figures for the IC50 (with J774 murine macrophages (unit inferred); in experiment [1] (setting [4]); in experiment [2] (unit inferred)) were 10.5 ± 2 µM, 32.1 ± 12.7 µM and 10.5 µM, respectively.

Consider `CCCN(CCC)c1c([N+](=O)[O-])cc(S(=O)(=O)Nc2cccc(Cl)c2)cc1[N+](=O)[O-]` [Compound 43, N1-(3-Chloro)phenyl-3,5-dinitro-N4,N4-di-n-propylsulfonilamide], for which the values for the IC50 (in the experiment with J774 murine macrophages (unit inferred); in experiment [1] (setting [4]); in experiment [2] (unit inferred)) were 8.67 ± 0.17 µM, 5.47 ± 0.1 µM and 0.88 µM, respectively.

As for “N1-(3-Methyl)phenyl-3,5-dinitro-N4,N4-di-n-propylsulfonilamide [Compound 42]”, the IC50 with J774 murine macrophages stood at 15.8 ± 2.1 µM; in experiment [1] (read-out: IC50, L. donovani axenic amastigotes), 22.7 ± 0.8 µM; in experiment [2] it was 0.92 µM.

Take `CCCN(CCC)c1c([N+](=O)[O-])cc(S(=O)(=O)Nc2ccc(Cl)cc2)cc1[N+](=O)[O-]` [Compound 41, N1-(4-Chloro)phenyl-3,5dinitro-N4,N4-di-n-propylsulfonilamide]: the 50% inhibitory concentration (IC50) was 9.13 ± 3.81 µM in the experiment on J774 murine macrophages (unit inferred), 13.3 ± 3 µM in experiment [1] (setting [4]) and 9.5 µM in experiment [2] (unit inferred).

Turning to `N=C(N)c1ccc(OCCCCCOc2ccc(C(=N)N)cc2)cc1` [Pentamidine, reference compound], the IC50 is 2 ± 0.06 µM in experiment [1] (Leishmania donovani, 72 h, unit inferred, three-day tetrazolium dye assay, read-out: IC50, L. donovani axenic amastigotes); 2 ± 0.06 µM in experiment [1] (Leishmania donovani, Table 1, mean ± standard deviation of at least two independent measurements, read-out: IC50 vs. L. donovani amastigotes); 0.0194 ± 0.0069 µM in experiment [2] (setting [5]); 1.61 ± 0.22 µM in experiment [3] (Leishmania donovani).

For `CCCN(CCC)c1c([N+](=O)[O-])cc(C#N)cc1[N+](=O)[O-]` [Compound 27], the “% Inhibition” value in the experiment on leishmanial tubulin is on record as 25 ± 17%. Besides, the IC50 in experiment [3] is over 100 µM.

As for `CCCN(CCC)c1c([N+](=O)[O-])cc(S(=O)(=O)NCC)cc1[N+](=O)[O-]` [Compound 35, N1-Ethyl-3,5-dinitro-N4,N4-di-n-propylsulfonilamide], the values for the IC50 in experiment [1] (setting [4]) and in experiment [2] (unit inferred) were over 100 µM and 4 µM, respectively.

On to `CCCN(CCC)c1c([N+](=O)[O-])cc(S(=O)(=O)NC)cc1[N+](=O)[O-]` [Compound 33, N1-Methyl-3,5-dinitro-N4,N4di-n-propylsulfonilamide], for which the IC50 is over 100 µM in experiment [1] (setting [4]) and 4.6 µM in experiment [2] (unit inferred).

Take `CCCN(CCC)c1c([N+](=O)[O-])cc(S(=O)(=O)Nc2cc(Cl)cc(Cl)c2)cc1[N+](=O)[O-]` [Compound 45, N1-(3,5-Dichloro)phenyl-3,5-dinitro-N4,N4-di-n-propylsulfonilamide]: the IC50 in the experiment on J774 murine macrophages (unit inferred) is 5.12 ± 0.35 µM; in experiment [1] (setting [4]) it was 3.71 ± 0.91 µM; in experiment [2] (unit inferred) it was 3.4 µM.

With `CCN(CC)c1c([N+](=O)[O-])cc(S(=O)(=O)Nc2ccccc2)cc1[N+](=O)[O-]` [Compound 31, N1-Phenyl-3,5-dinitro-N4,N4-di-n-ethylsulfonilamide], the values for the IC50 (with J774 murine macrophages (unit inferred); in experiment [1] (setting [4]); in experiment [2] (unit inferred)) were 47.7 ± 1.6 µM, 10.6 ± 2.6 µM and 1.9 µM, respectively.

Regarding `CCCN(CCC)c1c([N+](=O)[O-])cc(S(=O)(=O)NC(C)C)cc1[N+](=O)[O-]` [Compound 38, N1-Isopropyl-3,5-dinitro-N4,N4-di-n-propylsulfonilamide], the results for the IC50 in experiment [1] (setting [4]) and in experiment [2] (unit inferred) were 42.8 ± 2.3 µM and 2.5 µM, respectively.

For `CCCN(CCC)c1c([N+](=O)[O-])cc(S(=O)(=O)Nc2cccc(OC)c2)cc1[N+](=O)[O-]` [Compound 30, N1-(3-Methoxy)phenyl-3,5-dinitro-N4,N4-di-n-propylsulfonilamide], the IC50 is 25.3 ± 3.8 µM with J774 murine macrophages (unit inferred), 8.11 ± 3.33 µM in experiment [1] (setting [4]) and 0.5 µM in experiment [2] (unit inferred).

With `CCCN(CCC)c1c([N+](=O)[O-])cc(S(=O)(=O)N(C)C)cc1[N+](=O)[O-]` [Compound 34, N1,M1-Dimethyl-3,5-dinitro-N4,N4-di-n-propylsulfonilamide], the IC50 is over 100 µM in experiment [1] (setting [4]) and 5.9 µM in experiment [2] (unit inferred).

As to `CCCN(CCC)c1c([N+](=O)[O-])cc(S(=O)(=O)Nc2ccc(Cl)c(Cl)c2)cc1[N+](=O)[O-]` [Compound 44, N1-(3,4-Dichloro)phenyl-3,5-dinitro-N4,N4-di-n-propylsulfonilamide], the half-maximal inhibitory concentration (IC50) was found to be 7.19 ± 0.59 µM in the experiment with J774 murine macrophages (unit inferred), 5.03 ± 0.8 µM in experiment [1] (setting [4]) and 6.7 µM in experiment [2] (unit inferred).

For `NS(=O)(=O)c1cc([N+](=O)[O-])c(N2CCCC2)c([N+](=O)[O-])c1` [Compound 19], the “% Inhibition” value in the experiment with leishmanial tubulin is recorded as 57 ± 18%. For the same molecule, in experiment [3], the IC50 was 97.1 ± 53 µM.

For `CCCN(CCC)c1c([N+](=O)[O-])cc(S(=O)(=O)N(CC)CC)cc1[N+](=O)[O-]` [Compound 36, N1,N1-Diethyl-3,5-dinitro-N4,N4-di-n-propylsulfonilamide], the results for the IC50 in experiment [1] (setting [4]) and in experiment [2] (unit inferred) were 26.7 ± 0.4 µM and 10.2 µM, respectively.

The values are drawn from patent US20050227982A1, “Antileishmanial dinitroaniline sulfanomides with activity against parasite tubulin” (priority 2002, published 2005).
